Measured values taken from ChEMBL document CHEMBL3120058, “Integrated strategies for identifying leads that target the NS3 helicase of the hepatitis C virus” (J Med Chem, 2014).

Key:
[1] = Inhibition of HCV H genotype 1a N-terminal hexa-histidine-tagged NS3 helicase expressed in Escherichia coli BL21(DE3) using DNA oligonucleotide duplex as substrate after 1 hr by unwinding assay; design: species or system Hepatitis C virus (isolate H)
[2] = Binding affinity to HCV H genotype 1a N-terminal hexa-histidine-tagged NS3 helicase expressed in Escherichia coli BL21(DE3) by isothermal titration calorimetry; design: species or system Hepatitis C virus (isolate H)
[3] = Selectivity ratio for HCV H genotype 1a N-terminal hexa-histidine-tagged NS3 helicase over human RNA helicase A
[4] = Binding affinity to HCV H genotype 1a N-terminal hexa-histidine-tagged NS3 helicase expressed in Escherichia coli BL21(DE3) at pH 6.5 by circular dichroism assay; design: species or system Hepatitis C virus (isolate H)
[5] = Binding affinity to HCV H genotype 1a N-terminal hexa-histidine-tagged NS3 helicase expressed in Escherichia coli BL21(DE3) assessed as resonance peak1 by STD NMR spectroscopic analysis; design: species or system Hepatitis C virus (isolate H)
[6] = Binding affinity to HCV H genotype 1a N-terminal hexa-histidine-tagged NS3 helicase expressed in Escherichia coli BL21(DE3) in ITC/NMR buffer at pH 7.5 by circular dichroism assay; design: species or system Hepatitis C virus (isolate H)
[7] = Binding affinity to HCV H genotype 1a N-terminal hexa-histidine-tagged NS3 helicase expressed in Escherichia coli BL21(DE3) assessed as resonance peak2 by STD NMR spectroscopic analysis; design: species or system Hepatitis C virus (isolate H)

SMILES | IC50 [1] [µM] | other results
Nc1cc(-c2ccc3c(CC(=O)O)cn(Cc4cccc(Cl)c4)c3c2)cc([N+](=O)[O-])c1 | 140 | 
O=C(O)Cc1cn(Cc2cccc(Cl)c2)c2cc(-c3ccccc3)ccc12 | 140 | 
O=C(O)Cc1cn(-c2ccc([N+](=O)[O-])cc2C(F)(F)F)c2ccc(Br)cc12 | 140 | 
O=C(O)Cc1c[nH]c2ccccc12 [INDOLE-3-ACETIC ACID] | 500 | 
Cc1cccc(Cn2cc(CC(=O)O)c3ccccc32)c1 | 85 | 
O=C(O)Cc1cn(Cc2cccc(Cl)c2)c2ccccc12 | 71 | 
O=C(O)Cc1cn(Cc2cccc(O)c2)c2ccccc12 | 150 | 
O=C(O)Cc1cn(Cc2ccccc2)c2ccccc12 | 240 | 
Nc1cccc(Cn2cc(CC(=O)O)c3ccccc32)c1 | > 500 | 
O=C(O)Cc1cn(Cc2cccc(Cl)c2)c2cc(Br)ccc12 | 94 | 
O=C(O)Cc1cn(Cc2cccc(Cl)c2)c2cc(Cl)ccc12 | 94 | 

These reach a lower IC50 [1]. Values come first.

IC50 [1] [µM] | SMILES | other results
52 | O=C(O)Cc1cn(Cc2cccc(I)c2)c2ccccc12 | 
46 | O=C(O)Cc1cn(Cc2cccc([N+](=O)[O-])c2)c2ccccc12 | 
35 | Nc1cc(N)cc(-c2ccc3c(CC(=O)O)cn(Cc4cccc(Cl)c4)c3c2)c1 | 
31 | C#Cc1cccc(Cn2cc(CC(=O)O)c3ccccc32)c1 | 
14 | COc1ccc([N+](=O)[O-])cc1Cn1cc(CC(=O)O)c2ccccc21 | 
3 | COc1ccc([N+](=O)[O-])cc1Cn1cc(CC(=O)O)c2ccc(-c3cc(N)cc(N)c3)cc21 | Kd [2]: 33 µM; Selectivity ratio [3]: 36; Kd [4]: 3.5 µM; Kd [5]: 32 µM; Kd [6]: 41 µM; Kd [7]: 28 µM
